Data published in PubChem BioAssay AID1745844 (Carcinogenic Potency Database (CPDB), 2022).

Test system: rodent lifetime carcinogenesis bioassay, tumor incidence TD50; call rule not given here
Test: chronic cancer bioassays in animals – CPDB, compiled studies (AID 1745844)

Measured: TD50

c1ccc(C2CO2)cc1 (configuration not stated)
5960 mg/kg/day: mouse, strain B6C3F1, females, by gavage, site: liver, lesion: several types, types named in the paper, dosed 104 weeks, study length 107 weeks
223 mg/kg/day: mouse, strain B6C3F1, males, by gavage, site: liver, lesion: several types, types named in the paper, dosed 104 weeks, study length 107 weeks
191 mg/kg/day: rat, strain Sprague-Dawley, males, by gavage, site: any site (literature study), lesion: several types, types named in the paper, dosed 52 weeks, study length 156 weeks
166 mg/kg/day: rat, strain Sprague-Dawley, females, by gavage, site: any site (literature study), lesion: malignant tumor, dosed 52 weeks, study length 156 weeks
189 mg/kg/day: rat, strain Sprague-Dawley, males, by gavage, site: any site (literature study), lesion: malignant tumor, dosed 52 weeks, study length 156 weeks
164 mg/kg/day: rat, strain Sprague-Dawley, females, by gavage, site: any site (literature study), lesion: several types, types named in the paper, dosed 52 weeks, study length 156 weeks
10300 mg/kg/day: rat, strain Fischer 344, males, by gavage, site: liver, lesion: neoplastic nodule, dosed 104 weeks, study length 107 weeks
active: mouse, strain B6C3F1, females, by gavage, site: forestomach, lesion: several types, types named in the paper, dosed 104 weeks, study length 107 weeks 172 mg/kg/day | mouse, strain B6C3F1, females, by gavage, site: forestomach, lesion: squamous-cell carcinoma, dosed 104 weeks, study length 107 weeks 505 mg/kg/day | mouse, strain B6C3F1, females, by gavage, site: forestomach, lesion: squamous-cell papilloma, dosed 104 weeks, study length 107 weeks 460 mg/kg/day | mouse, strain B6C3F1, males, by gavage, site: forestomach, lesion: several types, types named in the paper, dosed 104 weeks, study length 107 weeks 90 mg/kg/day | mouse, strain B6C3F1, males, by gavage, site: forestomach, lesion: squamous-cell carcinoma, dosed 104 weeks, study length 107 weeks 475 mg/kg/day | mouse, strain B6C3F1, males, by gavage, site: forestomach, lesion: squamous-cell papilloma, dosed 104 weeks, study length 107 weeks 215 mg/kg/day | rat, strain Fischer 344, females, by gavage, site: forestomach, lesion: several types, types named in the paper, dosed 104 weeks, study length 107 weeks 42.9 mg/kg/day | rat, strain Fischer 344, females, by gavage, site: forestomach, lesion: squamous-cell carcinoma, dosed 104 weeks, study length 107 weeks 114 mg/kg/day | rat, strain Fischer 344, females, by gavage, site: forestomach, lesion: squamous-cell papilloma, dosed 104 weeks, study length 107 weeks 217 mg/kg/day | rat, strain Fischer 344, males, by gavage, site: forestomach, lesion: several types, types named in the paper, dosed 104 weeks, study length 107 weeks 30.7 mg/kg/day | rat, strain Fischer 344, males, by gavage, site: forestomach, lesion: squamous-cell carcinoma, dosed 104 weeks, study length 107 weeks 81.6 mg/kg/day | rat, strain Fischer 344, males, by gavage, site: forestomach, lesion: squamous-cell papilloma, dosed 104 weeks, study length 107 weeks 146 mg/kg/day | rat, strain Sprague-Dawley, females, by gavage, site: forestomach, lesion: benign tumor, dosed 52 weeks, study length 156 weeks 503 mg/kg/day | rat, strain Sprague-Dawley, females, by gavage, site: forestomach, lesion: several types, types named in the paper, dosed 52 weeks, study length 156 weeks 96.5 mg/kg/day | rat, strain Sprague-Dawley, females, by gavage, site: forestomach, lesion: squamous-cell carcinoma, in situ, dosed 52 weeks, study length 156 weeks 129 mg/kg/day | rat, strain Sprague-Dawley, females, by gavage, site: forestomach, lesion: squamous-cell carcinoma, invasive, dosed 52 weeks, study length 156 weeks 301 mg/kg/day | rat, strain Sprague-Dawley, females, by gavage, site: forestomach, lesion: squamous-cell carcinoma, dosed 52 weeks, study length 156 weeks 102 mg/kg/day | rat, strain Sprague-Dawley, males, by gavage, site: forestomach, lesion: benign tumor, dosed 52 weeks, study length 156 weeks 354 mg/kg/day | rat, strain Sprague-Dawley, males, by gavage, site: forestomach, lesion: several types, types named in the paper, dosed 52 weeks, study length 156 weeks 99.6 mg/kg/day | rat, strain Sprague-Dawley, males, by gavage, site: forestomach, lesion: squamous-cell carcinoma, in situ, dosed 52 weeks, study length 156 weeks 140 mg/kg/day | rat, strain Sprague-Dawley, males, by gavage, site: forestomach, lesion: squamous-cell carcinoma, invasive, dosed 52 weeks, study length 156 weeks 267 mg/kg/day | rat, strain Sprague-Dawley, males, by gavage, site: forestomach, lesion: squamous-cell carcinoma, dosed 52 weeks, study length 156 weeks 63 mg/kg/day

CCS(=O)(=O)c1ccc(S(N)(=O)=O)c2ccccc12
53.4 mg/kg/day: mouse, strain A x IF, females, in feed, site: lung, lesion: adenoma, dosed 100 weeks, study length 100 weeks
active: mouse, strain A x IF, females, in feed, site: urinary bladder, lesion: carcinoma, dosed 100 weeks, study length 100 weeks 34.2 mg/kg/day | mouse, strain IF x C57, females, in feed, site: urinary bladder, lesion: carcinoma, dosed 92 weeks, study length 92 weeks 15.3 mg/kg/day
